Source: EP1082127B1 (WARNER-LAMBERT COMPANY LLC, priority 1998, dated 1999)

How the values were obtained:
ICE [1] = molecular target: T1, ICE (Homo sapiens, UniProt P29466); assay: ICE inhibition, Ki determination (fluorogenic substrate Ac-Tyr-Val-Ala-Asp-AMC); assay type: biochemical; conditions: 15 µM Ac-Tyr-Val-Ala-Asp-AMC, 0.5 nM enzyme, 30°C, reversible competitive model
T1 sequence (P29466 120-297 limits assumed): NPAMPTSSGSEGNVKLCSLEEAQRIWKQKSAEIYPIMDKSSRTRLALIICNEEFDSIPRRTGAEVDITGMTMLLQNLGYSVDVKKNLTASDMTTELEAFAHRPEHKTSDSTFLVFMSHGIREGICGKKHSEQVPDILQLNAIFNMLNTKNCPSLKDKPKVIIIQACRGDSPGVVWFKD
T1 sequence (P29466 317-404 limits assumed): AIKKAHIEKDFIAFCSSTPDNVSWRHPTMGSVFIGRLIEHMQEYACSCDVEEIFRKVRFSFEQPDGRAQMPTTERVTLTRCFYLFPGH
Experimental: Serial dilutions of each compound of the invention are prepared using an initial 8-fold dilution of a DMSO stock into HGE (100 mM HEPES, 20% glycerol v/v, 0.5 mM EDTA), followed by seven serial 2-fold dilutions into HGE + 12.5% DMSO. Ten microliters of diluted stocks or of vehicle (HGE + 12.5% DMSO) are placed in triplicate onto a 96-well microtiter plate. Enzyme is diluted into assay buffer (HGE, 5 mM DTT, 15 µM Ac-Tyr-Val-Ala-Asp-AMC; 0.5 nM final enzyme concentration, pre-warmed to 30°C), and this reaction mixture is added to the plate at 90 µL/well. Substrate hydrolysis is monitored for 300 seconds at 30°C using 385 and 460 nm excitation and emission filters, respectively. Triplicate curves are averaged, and slopes are evaluated by linear regression. To evaluate Ki, plots of percent inhibition vs inhibitor concentration are fit by non-linear regression to a reversible, competitive model: [formula] where the competition factor is (1 + [S]/KM) = 2.

ICE [2] = molecular target: T1, ICE; assay: ICE Colorimetric Dose-Response (IC50) Assay; assay type: biochemical; conditions: 60 minutes preincubation, 50 µM Ac-Tyr-Val-Ala-Asp-pNA, 25°C
Experimental: (§1) Diluted inhibitor stocks are prepared by two-fold serial dilution from a primary stock whose concentration is selected (based on screening results or on prior attempts at IC50 evaluation) to achieve approximately 95% inhibition in the most concentrated well. Aliquots of each dilution are transferred to a microtitre plate in triplicate.
(§2) ICE enzyme is diluted to approximately 24 nM in HGE buffer (100 mM Hepes pH 7.5, 0.5 mM EDTA, 20% glycerol, 0.1% Bovine Serum Albumin (BSA), and activated by adding dithiothreitol (DTT) to a final concentration of 5 mM. The activated enzyme is then aliquoted into wells containing inhibitor or vehicle, and the plate is preincubated for 60 minutes at ambient temperature. Substrate (Ac-Tyr-Val-Ala-Asp-pNA) is added to each well to a final concentration of 50 µM, and plates are placed in the microtitre plate-reader thermostated to 25°C. Beginning 5 minutes after addition of substrate, absorbance (405 nm) of wells is monitored for 1 hour, and activity is calculated as the mean rate of change in absorbance during this interval.

[3] = tested on: IL-1β production in human peripheral blood mononuclear cells (PBMCs); assay: PBMC Cellular Assay - IC50 Determinations (LPS-stimulated IL-1β production, ELISA); assay type: cell-based; conditions: human PBMCs stimulated overnight with 10 ng/mL LPS, mature IL-1β by ELISA
From the text: Further evidence that compounds of Formula I are inhibitors of ICE is provided by their ability to inhibit IL-1β production in human peripheral blood mononuclear cells (PBMCs) as described herein. PBMCs are isolated from heparinized blood by centrifugation over a ficoll cushion, then washed three times with phosphate-buffered saline. PBMCs are suspended in a medium containing RPMI 1640 with glutamine, penicillin, streptomycin, and 2% human AB serum, then plated at 10^6 cells per well in 96-well flat bottom plates. PBMCs are stimulated overnight with 10 ng/mL of lipopolysaccharide (LPS, E. coli strain 0111:B4; Calbiochem) in the presence or absence of a compound of Formula I. Medium is harvested, and the level of mature IL-1β was determined using an ELISA kit from R&D Systems. Cells were cultured for an additional 4 hours in the presence of 3-(4,5-dimethylthiazol-2-yl)-2,5-diphenyltetrazolium bromide (MTT) to determine viability.

Ich-2 enzyme = molecular target: T2, Ich-2 enzyme (Homo sapiens, UniProt P49662); assay: Ich-2 Colorimetric Dose-Response (IC50) Assay; assay type: biochemical; conditions: enzyme 64 nM, 60 µM Ac-Leu-Glu-Val-Asp-pNA; read-out: ICH2 IC50 (Caspase 4)
T2 sequence (P49662 81-270 limits assumed): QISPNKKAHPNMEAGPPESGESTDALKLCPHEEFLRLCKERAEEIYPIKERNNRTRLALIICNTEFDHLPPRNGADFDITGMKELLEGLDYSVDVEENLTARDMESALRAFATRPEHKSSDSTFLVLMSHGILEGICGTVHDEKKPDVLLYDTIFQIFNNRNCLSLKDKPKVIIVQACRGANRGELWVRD
T2 sequence (P49662 290-377 limits assumed): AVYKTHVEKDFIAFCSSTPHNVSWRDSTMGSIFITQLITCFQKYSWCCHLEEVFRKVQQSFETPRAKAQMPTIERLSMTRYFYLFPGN
Experimental: as §1, §2
Inhibition of Ich-2 enzyme is assayed as described above for ICE, except that enzyme is used at 64 nM, and 60 µM of the Ich-2-specific substrate Ac-Leu-Glu-Val-Asp-pNA is used instead of the ICE substrate Ac-Tyr-Val-Ala-Asp-pNA.

| SMILES | Ki (ICE [1]) [µM] | IC50 (ICE [2]) [µM] | IC50 (Ich-2 enzyme) [µM] | IC50 [3] [µM] |
| --- | --- | --- | --- | --- |
| CC(C)C(CC(=O)NCCc1cn(C)c2ccccc12)C(=O)NC(C=O)CC(=O)O (stereo not shown) [Example 54, 3-(3-Methyl-2-{[2-(1-methyl-1H-indol-3-yl)-ethylcarbamoyl]-methyl}-butyrylamino)-4-oxo-butyric acid] | 0.004 | 0.037 | 11.1 | 2.85 |
| CCOC1OC(=O)CC1NC(=O)C(CC(=O)NCCCc1cc(OC)c(OC)c(OC)c1)C(C)C (stereo not shown) [Example 47, N^1-(2-Ethoxy-5-oxo-tetrahydro-furan-3-yl)-2-isopropyl-N^4-[3-(3,4,5-trimethoxy-phenyl)-propyl]-succinamide] | 1.93 | 112 | – | 11 |
| CCOC1OC(=O)CC1NC(=O)C(CC(=O)NCCc1c[nH]c2ccc(F)cc12)C(C)C (stereo not shown) [Example 52, N^1-(2-Ethoxy-5-oxo-tetrahydro-furan-3-yl)-N^4-[2-(5-fluoro-1H-indol-3-yl)-ethyl]-2-isopropyl-succinamide] | 0.0185 | 0.486 | – | 0.75 |
| CCOC1OC(=O)CC1NC(=O)C(CC(=O)NCCn1cnc2ccccc21)C(C)C (stereo not shown) [Example 35, N^4-(2-Benzoimidazol-1-yl-ethyl)-N^1-(2-ethoxy-5-oxo-tetrahydro-furan-3-yl)-2-isopropyl-succinamide] | 0.0511 | 1.06 | – | 5.5 |
| CCOC(=O)CC(C=O)NC(=O)C(CC(=O)NCCOc1ccccc1)C(C)C (stereo not shown) [Example 63, 3-{3-Methyl-2-[(2-phenoxy-ethylcarbamoyl)-methyl]-butyrylamino}-4-oxo-butyric acid ethyl ester] | 6.92 | 197 | – | 14.5 |
| CC(C)C(CC(=O)N(C)CCOc1ccccc1)C(=O)NC(C=O)CC(=O)O (stereo not shown) [Example 22, 3-(3-Methyl-2-{[methyl-(2-phenoxy-ethyl)-carbamoyl]-methyl}-butyrylamino)-4-oxo-butyric acid] | 0.133 | 1.67 | – | 19 |
| CCOC1OC(=O)CC1NC(=O)C(CC(=O)NCCc1c[nH]c2cc(OC)ccc12)C(C)C (stereo not shown) [Example 40, N^1-(2-Ethoxy-5-oxo-tetrahydro-furan-3-yl)-2-isopropyl-N^4-[2-(6-methoxy-1H-indol-3-yl)-ethyl]-succinamide] | 0.0354 | 1.15 | – | 2.9 |
| CCOC1OC(=O)CC1NC(=O)C(CC(=O)NCCn1ccc2ccccc21)C(C)C (stereo not shown) [Example 50, N^1-(2-Ethoxy-5-oxo-tetrahydro-furan-3-yl)-N^4-(2-indol-1-yl-ethyl)-2-isopropyl-succinamide] | 0.0538 | 0.924 | – | 2 |
| CC(C)[C@H](CC(=O)NCCOc1ccccc1)C(=O)NC(C=O)CC(=O)O (stereo partly shown) [Example 8] | 0.015 | 0.54 | – | 3.75 |
| CCOC1OC(=O)CC1NC(=O)C(CC(=O)NCCc1c[nH]c2cc(F)ccc12)C(C)C (stereo not shown) [Example 44, N^1-(2-Ethoxy-5-oxo-tetrahydro-furan-3-yl)-N^4-[2-(6-fluoro-1H-indol-3-yl)-ethyl]-2-isopropyl-succinamide] | 0.0475 | 1.22 | – | 2.5 |
| CCOC1OC(=O)CC1NC(=O)C(CC(=O)NCCOc1ccccc1)C(C)C (stereo not shown) [Example 39, N^1-(2-Ethoxy-5-oxo-tetrahydro-furan-3-yl)-2-isopropyl-N^4-(2-phenoxyethyl)-succinamide] | 0.446 | 13.2 | – | 5 |

More lines, main results first:

| Ki (ICE [1]) [µM] | IC50 (ICE [2]) [µM] | IC50 (Ich-2 enzyme) [µM] | SMILES | IC50 [3] [µM] |
| --- | --- | --- | --- | --- |
| > 100 | – | – | CCOC(=O)CC(C#N)NC(=O)C(CC(=O)NCCOc1ccccc1)C(C)C (stereo not shown) [Example 64, 3-Cyano-3-{3-methyl-2-[(2-phenoxy-ethylcarbamoyl)-methyl]-butyrylamino}-propionic acid ethyl ester] | > 100 |
| 2.15 | 123 | – | CCOC1OC(=O)CC1NC(=O)C(CC(=O)NCCCCc1ccccc1)C(C)C (stereo not shown) [Example 49, N^1-(2-Ethoxy-5-oxo-tetrahydro-furan-3-yl)-2-isopropyl-N^4-[4-(phenyl)-butyl]-succinamide] | – |
| 0.0981 | 2.28 | – | CCOC1OC(=O)CC1NC(=O)C(CC(=O)NCCNc1ccccc1)C(C)C (stereo not shown) [Example 43, N^1-(2-Ethoxy-5-oxo-tetrahydro-furan-3-yl)-2-isopropyl-N^4-(2-phenylamino-ethyl)-succinamide] | 7.5 |
| 0.409 | 13 | – | CCOC1OC(=O)CC1NC(=O)C(CC(=O)NCCn1nnc2ccccc21)C(C)C (stereo not shown) [Example 41, N^4-(2-Benzotriazol-1-yl-ethyl)-N^1-(2-ethoxy-5-oxo-tetrahydro-furan-3-yl)-2-isopropyl-succinamide] | 17.5 |
| 1.01 | 59.9 | – | CCOC1OC(=O)CC1NC(=O)C(CC(=O)NCCc1ccccc1)C(C)C (stereo not shown) [Example 48, N^1-(2-Ethoxy-5-oxo-tetrahydro-furan-3-yl)-2-isopropyl-N^4-[2-(phenyl)-ethyl]-succinamide] | 13.5 |
| 0.107 | 0.0087 | – | CC(C)C(CC(=O)NCCCc1ccccc1)C(=O)NC(CC(=O)O)C(=O)COc1cc2ccccc2cc1-c1ncc[nH]1 (stereo not shown) [Example 14, 5-[3-(1H-Imidazol-2-yl)-naphthalen-2-yloxy]-3-{3-methyl-2-[(3-phenyl-propylcarbamoyl)-methyl]-butyrylamino}-4-oxo-pentanoic acid] | 19 |
| 107 | – | – | CC(C)C(CC(=O)NCCOc1ccccc1)C(=O)NC(C#N)CC(=O)O (stereo not shown) [Example 65, 3-Cyano-3-{3-methyl-2-[(2-phenoxy-ethylcarbamoyl)-methyl]-butyrylamino}-propionic acid] | > 100 |
| 0.191 | 1.73 | – | CCOC1OC(=O)CC1NC(=O)C(CC(=O)NCCn1ncc2ccccc21)C(C)C (stereo not shown) [Example 42, N^1-(2-Ethoxy-5-oxo-tetrahydro-furan-3-yl)-N^4-(2-indazol-1-yl-ethyl)-2-isopropyl-succinamide] | 7.5 |
| 0.274 | 2.56 | – | COc1cc(CCCNC(=O)C[C@H](C(=O)NC(C=O)CC(=O)O)C(C)C)cc(OC)c1OC (stereo partly shown) [Example 62, 3-(3-methyl-2-{[3-(3,4,5-trimethoxy-pheny)-propylcarbamoyl]-methyl}-butyrylamino)-4-oxo-butyric acid] | 23 |
| 0.259 | 15 | – | CCOC1OC(=O)CC1NC(=O)[C@@H](CC(=O)NCCCc1ccccc1)C(C)C (stereo partly shown) [Example 51, N^1-(2-Ethoxy-5-oxo-tetrahydro-furan-3-yl)-2-isopropyl-N^4-[4-(phenyl)-propyl]-succinamide] | 16.2 |
